Reference: PMC12544700, “Identification of a Small Secretoneurin Derivative That Inhibits CaMKIIδ Activity” (Journal of Cellular and Molecular Medicine, 2025)
Peptide text beside a SMILES is read from it. * marks the point of attachment. Biotin = O=C1N[C@H]2[C@H](CS[C@H]2CCCCC(=O)*)N1; Ahx = NCCCCCC(=O)O

Assays:
[1] = target: T1, recombinant CaM (Homo sapiens, UniProt P0DP23); assay: Calmodulin pull-down with peptides synthesised on cellulose membrane; format: binding; conditions: peptide on cellulose membrane; 1 μg recombinant CaM, 1 mM CaCl2, overnight 4°C; immunoblot; Figure 3B
T1 construct: purchased Sigma Merck C4874
Experimental: To test for calmodulin (CaM) binding, recombinant CaM was pulled down after incubation with SN‐db‐short or a peptide representing the CaM binding site in CaMKII ([…], positive control). SN‐db‐short and the CaM‐binding peptide were synthesised in triplicates onto a cellulose membrane by a Multipep automated peptide synthesiser (CEM Corporation, Matthews, NC, USA). The specific spots of the membrane corresponding to SN‐db‐short or the positive control peptide were cut and placed into separate tubes. The membrane pieces were first rehydrated in 100% methanol and subsequently incubated with 1 μg of recombinant CaM (C4874, Sigma Merck) in CaMKII binding buffer supplemented with CaCl2 (50 mM Hepes, 150 mM NaCl, 15 mM MgCl2, 1 mM CaCl2, 0.1% Triton X‐100, 1% BSA) overnight at 4°C with rotation. […]
(§1) Lysates and immunoprecipitates were separated on 12% or 4%–15% Criterion TGX precast gels (5671044 and 5671084, Biorad, Hercules, CA, USA), blotted onto PVDF membranes (1704157 by Biorad or 03010040001 by Sigma Merck) and reversibly stained with Revert 700 Total Protein Stain (Li‐COR Biosciences, Lincoln, NE, USA). […] Blots were developed using ECL (RPN2236, GE Healthcare, Chicago, IL, USA) after four washing steps of 10 min in TBS‐t and the chemiluminescence signals were detected by Azure Biosystems 600 (Dublin, CA, USA). […] ImageJ [13] was used to quantify the blots.

[2] = tested on: CaMKIIδ fragments (aa 1–74, 1–165, 1–282, 1–311, 69–282); assay: ELISA-based binding to CaMKIIδ fragments; set-up: species or system rat; conditions: biotinylated peptide; fragments coated in wells; relative to Scram; Figure 2B, n = 9–13
Experimental: Recombinant human His‐CaMKIIδ‐T287D and rat His‐CaMKIIδ‐T287D full‐length proteins (T287D mutated to mimic active kinases) and rat His‐CaMKIIδ (1–74), rat His‐CaMKIIδ (1–165), rat His‐CaMKIIδ (1–282), rat His‐CaMKIIδ‐T287D (1–311), and rat His‐CaMKIIδ (69–282) recombinant fragments were generated by Genscript Corp.
A 96‐well microplate was coated with 1 μg/well of rat or human recombinant His‐CaMKIIδ‐T287D or CaMKIIδ fragments (custom made by Genscript) in 1× PBS overnight at 4°C with gentle tilting. Wells were washed with 1× PBS‐t (0.1% Tween‐20) and blocked with 0.5% gelatin (G‐1890 Gelatin type A, Sigma Merck, Darmstadt, Germany) or BSA (805095 30% BSA (Rinderalbumin 30%), Norsk Labex, Høvik, Norway) for 1 h at room temperature (RT), then incubated with 5 μL of biotinylated peptide (1 mM) for 2 h at 37°C with gentle tilting. The wells were then washed five times with 1× PBS‐t. To detect binding, the wells were incubated with a monoclonal anti‐biotin‐HRP conjugated antibody (1:5000 dilution, A‐0185, Sigma) for 30 min at RT. […] The reaction was stopped by adding 2 N HCl (100 μL), and the signal was measured at 450 nm by a plate reader (Hidex Sense Microplate Reader, Åbo, Finland). […]

[3] = target: T2, human His‐CaMKIIδ‐T287D (Homo sapiens, UniProt Q13557, T287D); assay: CaMKII pull-down with biotinylated peptides on streptavidin beads; format: binding; conditions: biotin‐SN‐db‐short vs biotin‐SN; immunoblot; Figure S2A, n = 8
T2 construct: Recombinant human His‐CaMKIIδ‐T287D and rat His‐CaMKIIδ‐T287D full‐length proteins; His; purchased Genscript Corp (custom made)
T2 sequence (Q13557 whole entry T287D): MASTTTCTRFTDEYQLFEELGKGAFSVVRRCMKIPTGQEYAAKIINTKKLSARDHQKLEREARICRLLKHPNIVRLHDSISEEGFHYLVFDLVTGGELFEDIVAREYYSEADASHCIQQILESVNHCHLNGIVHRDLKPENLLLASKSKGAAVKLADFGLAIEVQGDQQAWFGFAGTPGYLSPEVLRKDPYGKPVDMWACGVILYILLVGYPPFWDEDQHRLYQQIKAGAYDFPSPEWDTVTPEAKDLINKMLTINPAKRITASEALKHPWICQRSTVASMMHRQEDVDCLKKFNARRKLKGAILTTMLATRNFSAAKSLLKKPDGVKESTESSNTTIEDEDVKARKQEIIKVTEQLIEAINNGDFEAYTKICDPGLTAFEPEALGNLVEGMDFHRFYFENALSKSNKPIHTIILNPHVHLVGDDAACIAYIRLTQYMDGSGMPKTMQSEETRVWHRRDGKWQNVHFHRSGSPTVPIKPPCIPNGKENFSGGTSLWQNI
Experimental: In the CaMKII pull‐down assay, the biotinylated peptides (20 μL) were coupled to 50 μL of streptavidin magnetic beads (88816, Thermo Fisher) in PBS for 2 h at 4°C with rotation. The bead‐bound peptides were thereafter incubated with 1 μg of human His‐CaMKIIδ‐T287D in 300 μL of PBS or PBS with 1% BSA for 2 h at 4°C with rotation. The protein complexes attached to the beads were then washed three times in 300 μL of IP buffer (20 mM Hepes, pH 7.5, 150 mM NaCl, 1 mM EDTA, 1% Triton X‐100, supplemented with complete protease inhibitor cocktail and phosphatase inhibitor cocktail) or PBS. Samples were boiled in SDS loading buffer at 95°C for 5 min before western blot analysis.
as §1, with “blots. […]” for “blots.”

CaM binding (pull-down) [1]: no CaM was detected
Binding to CaMKIIδ fragments [2]: binding was detected for all fragments
Binding to recombinant human CaMKIIδ‐T287D vs. native SN (pull down) [3]: increased binding
SMILES: CC(C)C[C@H](NC(=O)[C@H](CCC(=O)O)NC(=O)[C@H](CCC(N)=O)NC(=O)[C@H](Cc1ccccc1)NC(=O)[C@H](Cc1ccccc1)NC(=O)[C@H](CO)NC(=O)[C@H](CCC(=O)O)NC(=O)[C@H](Cc1ccccc1)NC(=O)[C@@H](NC(=O)[C@H](C)NC(=O)[C@H](CC(C)C)NC(=O)[C@H](CO)NC(=O)[C@H](CCC(N)=O)NC(=O)[C@@H]1CCCN1C(=O)[C@@H](NC(=O)[C@H](Cc1ccc(O)cc1)NC(=O)[C@H](CCC(N)=O)NC(=O)[C@H](CCC(=O)O)NC(=O)CCCCCNC(=O)CCCC[C@@H]1SC[C@@H]2NC(=O)N[C@@H]21)[C@@H](C)O)[C@@H](C)O)C(=O)NCC(=O)N[C@@H](CCCCN)C(=O)O [SN‐db‐short] ({Biotin-Ahx}-EQYTPQSLATFESFFQELGK-OH; N-terminus and C-terminus assumed)
